Where a SMILES comes first, the peptide text is derived from it. Bridges are numbered along the chain shown (N, C = ends). [ ]: non-standard residue; d: D form. The star is where a group is joined. ξ: configuration not given here. Phe(4-CONH2) = NC(=O)c1ccc(C[C@H](N)C(=O)O)cc1; Phe(4-COOH) = N[C@@H](Cc1ccc(C(=O)O)cc1)C(=O)O; Bip = N[C@@H](Cc1ccc(-c2ccccc2)cc1)C(=O)O; Phe(3-Me) = Cc1cccc(C[C@H](N)C(=O)O)c1; Val(3-OH) = CC(C)(O)[C@H](N)C(=O)O; 4Pal = N[C@@H](Cc1ccncc1)C(=O)O; Cha = N[C@@H](CC1CCCCC1)C(=O)O; Cit = NC(=O)NCCC[C@H](N)C(=O)O; Thr(3ξ) = CC(O)[C@H](N)C(=O)O; Carboxymethyl = O=C(O)C*; Orn = NCCC[C@H](N)C(=O)O; Dab = NCC[C@H](N)C(=O)O
Molecular target: T1, human PD-1 / PD-L1-Ig binding on Jurkat cell line over-expressing human PD-1 (Jurkat-PD-1) (Homo sapiens, UniProt Q15116)
T1 construct: expressed in transfected cells; host or cells: Jurkat
T1 sequence (Q15116 25-288): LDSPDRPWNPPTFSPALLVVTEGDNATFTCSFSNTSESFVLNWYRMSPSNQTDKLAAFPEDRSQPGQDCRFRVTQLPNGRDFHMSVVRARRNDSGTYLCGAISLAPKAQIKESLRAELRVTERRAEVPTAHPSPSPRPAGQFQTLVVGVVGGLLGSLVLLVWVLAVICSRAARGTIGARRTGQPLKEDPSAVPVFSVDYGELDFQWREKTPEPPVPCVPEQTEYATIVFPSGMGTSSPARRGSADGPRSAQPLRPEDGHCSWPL
Assay: Jurkat-PD-1 Cell Binding High-Content Screening Assay (CBA)
Assay type: cell-based
Details: Jurkat-PD-1 cells, PE-labeled PD-L1-Ig 20 nM final; read-out: Jurkat HPD1_PDL1 IC50
Procedure, shortened: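 Jurkat cells over-expressing human PD-1, in DMEM/10% FCS, pre-incubated with compound 2 h at 37° C. PE-labeled human PD-L1-Ig (20 nM final) added for 1 h; cells fixed in paraformaldehyde with Hoechst 33342 nuclear stain, washed, and bound fluorescence quantified by high-content imaging.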

Row | Compound | IC50
1 | CC(C)C[C@H]1NC(=O)[C@H](CCCN)NC(=O)[C@H](C(C)C)NC(=O)[C@H](Cc2ccc(-c3ccccc3)cc2)NC(=O)[C@H](C(C)C)NC(=O)[C@H](Cc2c[nH]c3ccccc23)NC(=O)[C@H](CC(=O)O)NC(=O)[C@H](Cc2ccc(OCC(=O)O)cc2)NC(=O)[C@H](Cc2ccncc2)NC(=O)CSC[C@@H](C(=O)N[C@@H](CCN)C(N)=O)NC(=O)[C@H](C(C)O)NC(=O)[C@H](C(C)(C)O)NC(=O)[C@H](CC2CCCCC2)NC(=O)[C@H](CCN)NC1=O (stereo partly drawn) [Compound 2629] ({CH2CO}-[4Pal]Y(Carboxymethyl)DWV[Bip]V[Orn][dL][Dab][Cha][Val(3-OH)][Thr(3ξ)]C[Dab]-NH2; thioether N-14) | 10.6 nM
2 | Cc1cccc(C[C@@H]2NC(=O)[C@H](CC(=O)O)NC(=O)[C@H](Cc3ccc(OCC(=O)O)cc3)NC(=O)[C@H](Cc3ccncc3)NC(=O)CSC[C@@H](C(=O)N[C@@H](CCN)C(N)=O)NC(=O)[C@H](C(C)O)NC(=O)[C@H](C(C)(C)O)NC(=O)[C@H](CC3CCCCC3)NC(=O)[C@H](CCN)NC(=O)[C@@H](CC(C)C)NC(=O)[C@H](CCCN)NC(=O)[C@H](CCCNC(N)=O)NC(=O)[C@H](Cc3ccc(-c4ccccc4)cc3)NC(=O)[C@H](C(C)C)NC2=O)c1 (stereo partly drawn) [Compound 2630] ({CH2CO}-[4Pal]Y(Carboxymethyl)D[Phe(3-Me)]V[Bip][Cit][Orn][dL][Dab][Cha][Val(3-OH)][Thr(3ξ)]C[Dab]-NH2; thioether N-14) | 12.3 nM
3 | CC(C)C[C@H]1NC(=O)[C@H](CCCN)NC(=O)[C@H](C(C)C)NC(=O)[C@H](Cc2ccc(-c3ccccc3)cc2)NC(=O)[C@H](C(C)C)NC(=O)[C@H](Cc2c[nH]c3ccccc23)NC(=O)[C@H](CC(=O)O)NC(=O)[C@H](Cc2ccc(OCC(=O)O)cc2)NC(=O)[C@H](C(C)O)NC(=O)CSC[C@@H](C(=O)N[C@@H](CCN)C(N)=O)NC(=O)[C@H](C(C)O)NC(=O)[C@H](C(C)(C)O)NC(=O)[C@H](CC2CCCCC2)NC(=O)[C@H](CCN)NC1=O (stereo partly drawn) [Compound 2631] ({CH2CO}-[Thr(3ξ)]Y(Carboxymethyl)DWV[Bip]V[Orn][dL][Dab][Cha][Val(3-OH)][Thr(3ξ)]C[Dab]-NH2; thioether N-14) | 8.5 nM
4 | Cc1cccc(C[C@@H]2NC(=O)[C@H](CC(=O)O)NC(=O)[C@H](Cc3ccc(OCC(=O)O)cc3)NC(=O)[C@H](C(C)O)NC(=O)CSC[C@@H](C(=O)N[C@@H](CCN)C(N)=O)NC(=O)[C@H](C(C)O)NC(=O)[C@H](C(C)(C)O)NC(=O)[C@H](CC3CCCCC3)NC(=O)[C@H](CCN)NC(=O)[C@@H](CC(C)C)NC(=O)[C@H](CCCN)NC(=O)[C@H](CCCNC(N)=O)NC(=O)[C@H](Cc3ccc(-c4ccccc4)cc3)NC(=O)[C@H](C(C)C)NC2=O)c1 (stereo partly drawn) [Compound 2632] ({CH2CO}-[Thr(3ξ)]Y(Carboxymethyl)D[Phe(3-Me)]V[Bip][Cit][Orn][dL][Dab][Cha][Val(3-OH)][Thr(3ξ)]C[Dab]-NH2; thioether N-14) | 8.8 nM
5 | Cc1cccc(C[C@@H]2NC(=O)[C@H](CC(=O)O)NC(=O)[C@H](Cc3ccc(C(N)=O)cc3)NC(=O)[C@H](Cc3ccncc3)NC(=O)CSC[C@@H](C(=O)N[C@@H](CCN)C(N)=O)NC(=O)[C@H](CO)NC(=O)[C@H](C(C)(C)O)NC(=O)[C@H](CC3CCCCC3)NC(=O)[C@H](CCN)NC(=O)[C@@H](CC(C)C)NC(=O)[C@H](CCCN)NC(=O)[C@H](Cc3ccc(OCC(=O)O)cc3)NC(=O)[C@H](Cc3ccc(-c4ccccc4)cc3)NC(=O)[C@H](Cc3ccc(OCC(=O)O)cc3)NC2=O)c1 [Compound 2636] ({CH2CO}-[4Pal][Phe(4-CONH2)]D[Phe(3-Me)]Y(Carboxymethyl)[Bip]Y(Carboxymethyl)[Orn][dL][Dab][Cha][Val(3-OH)]SC[Dab]-NH2; thioether N-14) | 4.9 nM
6 | CC(C)C[C@H]1NC(=O)[C@H](CCCN)NC(=O)[C@H](CCCNC(N)=O)NC(=O)[C@H](Cc2ccc(-c3ccccc3)cc2)NC(=O)[C@H](C(C)C)NC(=O)[C@H](Cc2c[nH]c3ccccc23)NC(=O)[C@H](CC(=O)O)NC(=O)[C@H](Cc2ccc(OCC(=O)O)cc2)NC(=O)[C@H](CCN)NC(=O)CSC[C@@H](C(=O)N[C@@H](CCN)C(N)=O)NC(=O)[C@H](C(C)O)NC(=O)[C@H](C(C)C)NC(=O)[C@H](CC2CCCCC2)NC(=O)[C@H](CCN)NC1=O (stereo partly drawn) [Compound 2638] ({CH2CO}-[Dab]Y(Carboxymethyl)DWV[Bip][Cit][Orn][dL][Dab][Cha]V[Thr(3ξ)]C[Dab]-NH2; thioether N-14) | 16.1 nM
7 | Cc1cccc(C[C@@H]2NC(=O)[C@H](CC(=O)O)NC(=O)[C@H](Cc3ccc(OCC(=O)O)cc3)NC(=O)[C@H](CCN)NC(=O)CSC[C@@H](C(=O)N[C@@H](CCCN)C(N)=O)NC(=O)[C@H](C(C)O)NC(=O)[C@H](C(C)C)NC(=O)[C@H](CC3CCCCC3)NC(=O)[C@H](CCN)NC(=O)[C@@H](CC(C)C)NC(=O)[C@H](CCCN)NC(=O)[C@H](CCCNC(N)=O)NC(=O)[C@H](Cc3ccc(-c4ccccc4)cc3)NC(=O)[C@H](C(C)C)NC2=O)c1 (stereo partly drawn) [Compound 2639] ({CH2CO}-[Dab]Y(Carboxymethyl)D[Phe(3-Me)]V[Bip][Cit][Orn][dL][Dab][Cha]V[Thr(3ξ)]C[Orn]-NH2; thioether N-14) | 13.6 nM

These reach a lower IC50. Values come first.

Row | IC50 | Compound
8 | 4 nM | Cc1cccc(C[C@@H]2NC(=O)[C@H](CC(=O)O)NC(=O)[C@H](Cc3ccc(OCC(=O)O)cc3)NC(=O)[C@H](C(C)O)NC(=O)CSC[C@@H](C(=O)N[C@@H](CCN)C(N)=O)NC(=O)[C@H](CO)NC(=O)[C@H](C(C)(C)O)NC(=O)[C@H](CC3CCCCC3)NC(=O)[C@H](CCN)NC(=O)[C@@H](CC(C)C)NC(=O)[C@H](CCCN)NC(=O)[C@H](Cc3ccc(O)cc3)NC(=O)[C@H](Cc3ccc(-c4ccccc4)cc3)NC(=O)[C@H](Cc3ccc(C(N)=O)cc3)NC2=O)c1 (stereo partly drawn) [Compound 2633] ({CH2CO}-[Thr(3ξ)]Y(Carboxymethyl)D[Phe(3-Me)][Phe(4-CONH2)][Bip]Y[Orn][dL][Dab][Cha][Val(3-OH)]SC[Dab]-NH2; thioether N-14)
9 | 4.7 nM | Cc1cccc(C[C@@H]2NC(=O)[C@H](CC(=O)O)NC(=O)[C@H](Cc3ccc(OCC(=O)O)cc3)NC(=O)[C@H](C(C)O)NC(=O)CSC[C@@H](C(=O)N[C@@H](CCN)C(N)=O)NC(=O)[C@H](CO)NC(=O)[C@H](C(C)(C)O)NC(=O)[C@H](CC3CCCCC3)NC(=O)[C@H](CCN)NC(=O)[C@@H](CC(C)C)NC(=O)[C@H](CCCN)NC(=O)[C@H](Cc3ccc(OCC(=O)O)cc3)NC(=O)[C@H](Cc3ccc(-c4ccccc4)cc3)NC(=O)[C@H](Cc3ccc(C(=O)O)cc3)NC2=O)c1 (stereo partly drawn) [Compound 2634] ({CH2CO}-[Thr(3ξ)]Y(Carboxymethyl)D[Phe(3-Me)][Phe(4-COOH)][Bip]Y(Carboxymethyl)[Orn][dL][Dab][Cha][Val(3-OH)]SC[Dab]-NH2; thioether N-14)
10 | 4.5 nM | Cc1cccc(C[C@@H]2NC(=O)[C@H](CC(=O)O)NC(=O)[C@H](Cc3ccc(C(=O)O)cc3)NC(=O)[C@H](C(C)O)NC(=O)CSC[C@@H](C(=O)N[C@@H](CCN)C(N)=O)NC(=O)[C@H](CO)NC(=O)[C@H](C(C)(C)O)NC(=O)[C@H](CC3CCCCC3)NC(=O)[C@H](CCN)NC(=O)[C@@H](CC(C)C)NC(=O)[C@H](CCCN)NC(=O)[C@H](Cc3ccc(OCC(=O)O)cc3)NC(=O)[C@H](Cc3ccc(-c4ccccc4)cc3)NC(=O)[C@H](Cc3ccc(C(=O)O)cc3)NC2=O)c1 (stereo partly drawn) [Compound 2635] ({CH2CO}-[Thr(3ξ)][Phe(4-COOH)]D[Phe(3-Me)][Phe(4-COOH)][Bip]Y(Carboxymethyl)[Orn][dL][Dab][Cha][Val(3-OH)]SC[Dab]-NH2; thioether N-14)
